Results reported in patent US20210052593A1, “Compositions and Methods for the Treatment of Macrophage Activation Syndrome” (Children's Hospital Medical Center, priority 2018, published 2021).

Legend:
[1] = test system: SJIA patients; settings: observed MAS rates in phase III trials, even if underlying SJIA well controlled; cited from earlier work
[2] = treatment of MAS; cited from earlier work
[3] = test system: MAS patients; settings: cited from earlier work
[4] = test system: IFN-induced signature; settings: clinical trial of anakinra in SJIA, Quartier et al; vs placebo, regardless of response status; cited from earlier work
[5] = test system: SJIA patient with recurrent MAS; assay: Use of Tadekinig-alfa in an SJIA patient with recurrent MAS; type: in vivo, human; settings: one SJIA patient with recurrent MAS
[6] = test system: perforin-deficient mice infected with murine CMV; settings: cited from earlier work

## tocilizumab
[1]
  protection against MAS: do not provide protection against MAS

## COc1cc([C@@H]2c3cc4c(cc3[C@@H](O[C@@H]3O[C@@H]5CO[C@@H](C)O[C@H]5[C@H](O)[C@H]3O)[C@H]3COC(=O)[C@H]23)OCO4)cc(OC)c1O [etoposide]
[2]
  associated toxicity / side effects: Life threatening bone marrow suppression, short-term, and hematologic malignancies later in life

## rilonacept
[3]; literature report
  occurrence of MAS in treated patients: MAS has been seen

## anakinra
[3]; literature reports
  treatment of MAS: successful treatment of MAS
[4]
  strength of the IFN-induced signature: sustained increase

## canakinumab
[1]
  protection against MAS: do not provide protection against MAS

B1: Tadekinig-alfa (protein, UniProt O95998 31-194, looked up)
Interleukin-18-binding protein: TPVSQTTTAATASVRSTKDPCPSQPPVFPAAKQCPALEVTWPEVEVPLNGTLSLSCVACSRFPNFSILYWLGNGSFIEHLPGRLWEGSTSRERGSTGTQLCKALVLEQLTPALHSTNFSCVLVDPEQVVQRHVVLAQLWAGLRATLPPTQEALPSSHSSPQQQG
notes: recombinant IL18BP
[5]
  frequency of MAS episodes: remained unchanged
  severity of MAS episodes: reduced the severity of MAS episodes

B2: synthetic IL-18BP: synthetic IL-18 binding protein administered to mice (protein, UniProt Q9Z0M9 29-193, looked up)
Interleukin-18-binding protein: TSAPQTTATVLTGSSKDPCSSWSPAVPTKQYPALDVIWPEKEVPLNGTLTLSCTACSRFPYFSILYWLGNGSFIEHLPGRLKEGHTSREHRNTSTWLHRALVLEELSPTLRSTNFSCLFVDPGQVAQYHIILAQLWDGLKTAPSPSQETLSSHSPVSRSAGPGVA
[6]
  liver damage: ameliorated liver damage
  overall survival: no change
  production of proinflammatory cytokines: remained high
